Bounds are passed on as bounds.

As for `CN(C)C(=O)c1ccc(F)c2c1CC(N(CCCc1c[nH]c3ccc(F)cc13)C1CCC1)CO2` (centres undefined), the melting point turned out to be 126 °C.

`Nc1nc(Cl)cc(OCC(O)CO)n1` (centres undefined) showed a melting point of 175 to 177 °C.

Compound `CCCCCCCCCCCCCCOc1ccc(OCc2ccccc2)c(C(=O)O)c1` yielded a melting point of 73 to 74 °C.

Consider `C#C[C@]1(C)CCc2c(C)c(OCc3ccccc3)c(C)c(C)c2O1`, for which the melting point was in the range of 88 to 90 °C.

As for `COc1ccc(Cl)cc1C(=O)NCc1ccc(CC(=O)O)cc1`, the melting point fell in the range of 140 to 141 °C.

The compound `CCCNc1cccc(-c2ccc(C(=O)O)c(=O)[nH]2)c1` had a melting point of 251 to 254 °C.

As for `CCOC(=O)c1c(O)c2cc(C)ccc2n(C)c1=O`, the melting point was 132 °C.

`CC(=O)SCCC(=O)N1[C@@H](c2ccccc2O)SC[C@H]1C(=O)N[C@@H](CCC(=O)O)C(=O)O` registered a melting point of 93 to 98 °C.

`C=CC(=O)NCCCCOc1ccccc1` came in with a melting point of 46 to 47 °C.

In turn, `CCOC(=O)CC(=O)COCC1=C(C(=O)OCC)C(c2ccccc2Cl)C(C(=O)OC)=C(C)N1` (centres undefined) displayed a melting point of 88 to 89 °C.

For the compound `N#Cc1ccc(N2CCN(c3ccncc3)CC2)cc1`, the melting point is 155 to 158 °C.

Compound `O=C(c1ccccc1)c1nc(Cl)ccc1[N+](=O)[O-]` came in with a melting point of 107 °C.

Take `Cc1cc(CBr)cc(Oc2nc(Cl)nc(Cl)c2C(C)C)c1`: the melting point was 98 to 101 °C.

For `Nc1c(C(=O)c2cccc(C(=O)O)c2)[nH]c2cc(Cl)ccc12`, the melting point is 263 to 270 °C.

Regarding `COc1cc(COc2nn(-c3ccccc3)cc2C=O)ccc1OCc1nc(-c2cccc(C#N)c2)oc1C`, the melting point was in the range of 161 to 162 °C.

Turning to `Fc1ccc2c(CN3CCN(c4ccc(Cl)cc4)CC3)n[nH]c2c1`, the melting point is 217 to 219 °C.

As for `O=c1[nH]n(-c2ccnc(N[C@H]3CC[C@H](O)CC3)n2)c2ccccc12`, the melting point worked out at 264 °C.

In turn, `O=C(O)CCc1cc(Br)c2c(c1)CCO2` showed a melting point of 117 to 118 °C.

`Cc1ccc(-c2ccc3c(c2)C=C(C(=O)Nc2ccc(CN(C)C4CCOCC4)cc2)CCS3(=O)=O)s1`: the melting point fell in the range of 229 to 231 °C.

The compound `On1c(C(F)(F)F)nc2nc(Cl)c(Cl)cc21` yielded a melting point of 207 to 208 °C.

For the compound `O=C(Oc1ccccc1)N1CCC(c2noc3cccc(F)c23)CC1`, the melting point was 108 to 110 °C.

In turn, `CCCCOC(=O)[C@H]1CN(c2ccc3c(c2)oc(=O)n3CC)C(=O)O1` had a melting point of 155 to 157 °C.

Compound `CN(C(=O)OC(C)(C)C)c1cc(OCc2ccccc2)ccc1N` came in with a melting point of 86 to 89 °C.

As to `COc1ccccc1C(C)NCC(=O)Nc1c(C(C)C)cccc1C(C)C` (centres undefined), the melting point fell in the range of 68 to 70 °C.

In the case of `CN1C(=O)Cn2c(nn(-c3ccccc3)c2=O)-c2cc(Cl)ccc21`, the melting point is 174 to 175 °C.

Take `CN1CCN(c2ccc(N/C=C3\C(=O)NC(=O)c4ccc(C(=O)N(C)C)cc43)cc2)CC1`: the melting point was greater than 300 °C.

The compound `CC(C)(C)OC(=O)NC(=N)NC(=O)OC(C)(C)C` returned a melting point of 144 °C.

The compound `NS(=O)(=O)c1ccc(C2=C(c3ccc(F)cc3)CCC2)cc1` came in with a melting point of 173 to 174 °C.

Compound `Cc1ccnc2c1C(=O)c1cc([N+](=O)[O-])ccc1-2` showed a melting point of 225 to 227 °C.

On to `CCn1c(=O)c2cc(C(=O)O)cn2c2ccccc21`, for which the melting point was in the range of 314 to 316 °C.

Compound `COc1cc(C(=O)NC=NC(=O)ON(c2ccc(C)c(NC(=O)c3ccc(C(=O)c4ccccc4)cc3)c2)C(C)(C)C)cc(OC)c1OC` had a melting point of 96 °C.

`CCOC(=O)c1c(Nc2ccc(F)cc2[N+](=O)[O-])nn(C)c1C` showed a melting point of 174 °C.

On to `Cc1cc(OCC(O)CNC(C)(C)C)ccc1-c1nc(C(F)(F)F)c[nH]1` (centres undefined), for which the melting point fell in the range of 162 to 164 °C.

In the case of `Cc1cn(-c2cccc(C(=O)CC(=O)Nc3cc(C#Cc4ccc(F)cc4)ccc3NC(=O)OC(C)(C)C)c2)cn1`, the melting point amounted to 166 °C.

For the compound `O=[N+]([O-])CCc1cccc2ccccc12`, the melting point lay in the range of 45 to 46 °C.

As to `CCCCCC(=O)CCCC(=O)O`, the melting point lay within 54 to 55 °C.

Consider `Nc1ccc2c3c(cccc13)C(=O)N2`, for which the melting point was 240 to 242 °C.

As for `COC(=O)c1c(C)[nH]c(-c2ccncn2)c1C(=O)OC`, the melting point lay in the range of 210 to 211 °C.

As to `CC(C)(C)c1nc(CN2C(=O)C3(COc4cc5c(cc43)OCO5)c3ccccc32)no1` (centres undefined), the melting point was 183 to 185 °C.

For the compound `CCC(=O)C1=C(O)CC(c2c(C)c(C)c3c(c2C)OC(C)(C)C3)CC1=O` (centres undefined), the melting point fell in the range of 74 to 76 °C.

As for `CC(C)(C)c1ccc(N)c([N+](=O)[O-])c1`, the melting point fell in the range of 107 to 108 °C.

Compound `CN(C)Cc1ccc(CSCCNC(=N)N[N+](=O)[O-])o1` came in with a melting point of 103 to 104 °C.

Take `O=c1cc2c3cccnc3sn2c2ccccc12`: the melting point is greater than 350 °C.

Regarding `O=C(O)[C@@H]1C[C@H]2C[C@@H](CCc3cc(O)no3)CC[C@H]2CN1` (racemic), the melting point is 256 °C.

`CCNC(=S)NC1CCCc2ccccc21` (centres undefined): the melting point was 120 to 122 °C.

Compound `O=C(NCCCCCn1cncn1)c1ccc(Br)cc1` yielded a melting point of 93 to 95 °C.

`COc1ccc(CCN2CCC(C(O)(c3cccs3)c3cccs3)CC2)cc1` gave a melting point of 153 to 155 °C.

With `Nc1c(Br)cc(Cl)cc1C(=O)c1ccccc1Cl`, the melting point was 100 to 101 °C.

As to `Cc1c(CCO)c2cc(OCc3csc(-c4ccccc4)n3)ccc2n1Cc1ccccc1`, the melting point is 114 to 116 °C.

In the case of `COC(=O)c1cnc2c3cc(NC(=O)C4CCCCC4)ccc3ncn2c1=O`, the melting point was 250 to 251 °C.

In turn, `CCn1cc(C(=O)O)c(=O)c2cc(F)c(N3C[C@@H](N)[C@@H](C)C3)c(Cl)c21` (relative stereo) had a melting point of 222 to 224 °C.

With `O=c1[nH]c2cc(Cl)ccc2c(=O)n1S(=O)(=O)c1cccc2cccnc12`, the melting point is 284 to 286 °C.

On to `CN1C(=O)CCc2cccc(N3CCN(CCCCOc4ccc5c(n4)NC(=O)CCC5)CC3)c21`, for which the melting point was in the range of 184 to 185 °C.

In turn, `NS(=O)(=O)c1ccc(S(=O)(=O)N2CCC(=O)CC2)cc1` returned a melting point of 194 to 195 °C.

Compound `CC(C)(C)OC(=O)NC(C(=O)NOC(c1ccccc1)(c1ccccc1)c1ccccc1)C1(O)CCSC1` (centres undefined) displayed a melting point of 220 to 225 °C.

Compound `CC(NC(=O)CCl)(c1ccccc1)c1ccccc1` came in with a melting point of 73 to 74 °C.

In turn, `CCc1c(-c2ccc(OCc3ccccc3)cc2)c2cc(COC)c3cccc1n32` yielded a melting point of 111 to 113 °C.

`CCCCOCCOc1ccc(-c2ccc(N3CC(C)C(C)C3)c(C=C(C)C(=O)OCC)c2)cc1` (centres undefined): the melting point lay within 67 to 69 °C.

`COc1cc2c(cc1O)CCC1C2CCC2(C)C(O)C=CC12` (centres undefined) gave a melting point of 191 to 193 °C.

`OC(CCc1ccc(Cl)s1)Cn1ccnc1` (centres undefined) showed a melting point of 82 to 84.5 °C.

In turn, `CCN(c1ccc(Cl)cc1C(N)=O)S(=O)(=O)c1ccc(C)cc1` came in with a melting point of 148 to 150 °C.

Take `COC(=O)c1cccc([N+](=O)[O-])c1Nc1cccc2[nH]ncc12`: the melting point was 152 to 154 °C.

The compound `Cc1[nH]c2ncnc(N3CCCc4ccccc43)c2c1C` returned a melting point of 263 to 264 °C.

As to `CCCc1ccc(-n2nc(Cl)cc2-c2ccc(S(C)(=O)=O)cc2)cc1Cl`, the melting point lay in the range of 119 to 122 °C.

Compound `CCCCc1nc2c(N)nc3ccc(OCc4ccccc4)cc3c2n1CCCCNS(C)(=O)=O` gave a melting point of 178 to 182 °C.

Compound `O=C(c1ccccc1)C1CCN(Sc2ccncc2)CC1` returned a melting point of 123 to 124 °C.

`Clc1nn2nnnc2c2c1CCCC2` gave a melting point of 109 to 110 °C.

Regarding `Cn1c(-c2ccc(-n3cnc4ccccc43)cc2)cnc1[C@H](Cc1ccccn1)N(C=O)c1cc2ccccc2o1`, the melting point was in the range of 152 to 155 °C.

`O=C(O)C1=CC2C(=O)NC(=O)C2(CCO)C=C1` (centres undefined) displayed a melting point of 197 to 198 °C.

Compound `Nc1nc2ccc(NC(=O)c3ccccc3)cc2s1` registered a melting point of 213 to 215 °C.

As to `O=Cc1cn(CCCCO)c2ncccc12`, the melting point stood at 90 °C.

Regarding `COc1cc(OC)nc(Oc2nccc(-c3ccccc3)c2C(=O)O)n1`, the melting point fell in the range of 165 to 169 °C.

Compound `CS(=O)(=O)N1CCN(C(=N)Nc2ccccc2-c2ccccc2)CC1` showed a melting point of 178 to 180 °C.

The compound `CCCCCCCNC(=O)N(C)c1cccc(-c2ccc(C=CC(=O)O)cc2)c1` came in with a melting point of 125 to 126 °C.

The compound `COc1ccc(C=NNS(=O)(=O)c2ccc(C)cc2)cc1` returned a melting point of 103 to 105 °C.

Consider `CC(C)c1cc(-c2c3ccccc3c(Br)c3sc4ccccc4c23)cc(C(C)C)c1OCC(=O)O`, for which the melting point lay within 220 to 221 °C.

`CCCCCCNC(=O)[C@@H]1CCCN1C(=O)[C@@H](N)C(C)C` gave a melting point of 105 to 106 °C.

As for `CC(C(=O)N1CCCC1C(=O)O)N(CC(=O)C(Cc1ccccc1)NC(=O)c1ccccc1)C(=O)OCc1ccccc1` (centres undefined), the melting point was in the range of 70 to 91 °C.

The compound `Nc1ccc(C(=O)N2Cc3ccccc3Cc3cc(Cl)ccc32)cc1` yielded a melting point of 211 to 214 °C.

Regarding `CCSc1nc(=O)[nH]cc1C`, the melting point was in the range of 181 to 184 °C.

As to `O=C(Nc1ccccc1)OCC#Cc1cc(F)c2ncc(C(=O)NCc3ccc(Cl)cc3)c(O)c2c1`, the melting point is 227 to 229 °C.

The compound `CCCCCCCCCCCCCCCCCCSC(C)CCO` (centres undefined) registered a melting point of 35 to 38 °C.

As for `CC(=O)Oc1cccc(C(=O)N[C@@H](Cc2ccccc2)[C@H](OC(C)=O)C(=O)O)c1C`, the melting point was in the range of 152 to 154 °C.

`CCCCCCC(=O)c1ccc2c(c1)CC(=O)O2` displayed a melting point of 64 to 67 °C.

`CN(C)CCNc1ccc(NCCN(C)C)c2c1C(=O)c1ccc(O)c(O)c1C2=O` showed a melting point of 133 to 135 °C.

In turn, `COc1ccc2[nH]c(C(=O)c3ccccc3)c(NC(C)=O)c2c1` had a melting point of 258 to 260 °C.

For `O=C(Cc1ccccc1F)c1ccc(I)cc1`, the melting point lay in the range of 112 to 114 °C.

For `CCCCN(CCCOc1ccc(S(=O)(=O)c2c(C(C)C)cn3ccccc23)cc1)C(C)c1ccc(OC)c(OC)c1` (centres undefined), the melting point was in the range of 108 to 110 °C.

Compound `O=C(O)c1ccc(C(=O)N(Cc2ccccc2)S(=O)(=O)c2ccc(Br)cc2)cc1` displayed a melting point of 193 to 194 °C.

Usually melting point stands for the temperature, or range, at which the solid turns liquid.

(Values after a melting point compilation (Tetko et al.; mined from patent text by program, amines drawn as free bases though some values may be those of a salt).)
